Assays:
giant foxtail = assay: Test A preemergence; assay type: in vivo, Setaria faberii
Summary of the method: (§1)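 Visual 0–100 rating (100 = complete control) taken about 10 d post-treatment relative to untreated checks. Preemergence: directed soil spray on sown loam/sand pots. Postemergence: seedlings 2–10 cm, 1–2 leaf. Non-phytotoxic solvent formulation with surfactant.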

morningglory [1] = assay: Test A preemergence; assay type: in vivo, Ipomoea spp.
Summary of the method: as §1

velvetleaf [2] = assay: Test A preemergence; assay type: in vivo, Abutilon theophrasti
Summary of the method: as §1

corn = assay: Test A preemergence; assay type: in vivo, Zea mays
Summary of the method: as §1

large (Lg) crabgrass = assay: Test A postemergence; assay type: in vivo, Digitaria sanguinalis; details: 0 to 100 scale where 0 is no effect and 100 is complete control
Summary of the method: as §1

pigweed [3] = assay: Test A postemergence; assay type: in vivo, Amaranthus retroflexus; details: 0 to 100 scale where 0 is no effect and 100 is complete control
Summary of the method: as §1

velvetleaf [4] = assay: Test A postemergence; assay type: in vivo, Abutilon theophrasti; details: 0 to 100 scale where 0 is no effect and 100 is complete control
Summary of the method: as §1

wheat = assay: Test A postemergence; assay type: in vivo, Triticum aestivum; details: 0 to 100 scale where 0 is no effect and 100 is complete control
Summary of the method: as §1

barnyardgrass [5] = assay: Test B flooded paddy test; assay type: in vivo, Echinochloa crus-galli; details: Flood, 250 g ai/ha; 0 to 100 scale where 0 is no effect and 100 is complete control
Summary of the method: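 Scores from 0 (no effect) to 100 (complete control) are visual comparisons with controls, taken 13 to 15 days after compound was applied into floodwater 3 cm deep around 2-leaf plants.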

wheat, winter = assay: Test C preemergence; assay type: in vivo, Triticum aestivum; details: for Wheat plant response rating: preemergence
Summary of the method: (§2)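 Injury was assessed visually against controls 13 to 15 days after application, with 0 meaning no effect and 100 full control; missing entries are shown as a dash. Preemergence sprays hit seeded loam–sand soil, postemergence sprays hit 1- to 4-leaf plants.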

lambsquarters = assay: Test C preemergence; assay type: in vivo, Chenopodium album; details: for Lambsquarters plant response rating: preemergence
Summary of the method: as §2

barnyardgrass [6] = assay: Test C preemergence; assay type: in vivo, Echinochloa crus-galli; details: for Barnyardgrass plant response rating: preemergence
Summary of the method: as §2

Italian ryegrass = assay: Test C postemergence; assay type: in vivo, Lolium multiflorum
Summary of the method: as §2

morningglory [7] = assay: Test C postemergence; assay type: in vivo, Ipomoea coccinea
Summary of the method: as §2

pigweed [8] = assay: Test C postemergence; assay type: in vivo, Amaranthus retroflexus
Summary of the method: as §2

kochia = assay: Test C postemergence; assay type: in vivo, Kochia scoparia
Summary of the method: as §2

[9] = 500 g ai/ha, 0 to 100 scale where 0 is no effect and 100 is complete control
[10] = 16 g ai/ha, scale 0 to 100 (0 no effect, 100 complete control)
[11] = 125 g ai/ha, scale 0 (no effect) to 100 (complete control)
[12] = Preemergence, 62 g ai/ha, scale 0 to 100, 0 no effect, 100 complete control
[13] = 16 g ai/ha, postemergence, 0 is no effect, 100 is complete control
[14] = 31 g ai/ha, postemergence, visual rating, scale 0 to 100 (0 no effect, 100 complete control), 13 to 15 days
[15] = 125 g ai/ha, postemergence, visual rating, scale 0 to 100 (0 no effect, 100 complete control)
[16] = Postemergence, 62 g ai/ha, scale 0 to 100 (0 no effect, 100 complete control), 13 to 15 days

## N#Cc1cnn(-c2c(Oc3ncc(Cl)cn3)cccc2C(F)F)c1 [Compound 236]
Giant foxtail; 125 g ai/ha
  Foxtail, Giant plant response rating (0 to 100 scale): 100
Giant foxtail; [9]
  Foxtail, Giant plant response rating: 100
Morningglory [1]; 125 g ai/ha
  Morningglory plant response rating (0 to 100 scale): 30
Morningglory [1]; [9]
  Morningglory plant response rating: 100
Velvetleaf [2]; 125 g ai/ha
  Velvetleaf plant response rating (0 to 100 scale): 100
Velvetleaf [2]; [9]
  Velvetleaf plant response rating: 100
corn; 125 g ai/ha
  Corn plant response rating (0 to 100 scale): 20
corn; [9]
  Corn plant response rating: 90
Large (Lg) crabgrass; 125 g ai/ha
  Crabgrass, Large plant response rating: 80
Large (Lg) crabgrass; 500 g ai/ha
  Plant response rating, Crabgrass, Large: 100
Pigweed [3]; 125 g ai/ha
  Pigweed plant response rating: 100
Pigweed [3]; 500 g ai/ha
  Plant response rating, Pigweed: 100
Velvetleaf [4]; 125 g ai/ha
  Velvetleaf plant response rating: 90
Velvetleaf [4]; 500 g ai/ha
  Plant response rating, Velvetleaf: 100
wheat; 125 g ai/ha
  Wheat plant response rating: 50
wheat; 500 g ai/ha
  Plant response rating, Wheat: 100
Barnyardgrass [5]
  Plant response rating, Barnyardgrass: 30
wheat, winter; [10]
  Wheat plant response rating: 0
wheat, winter; [11]
  Wheat plant response rating: 60
wheat, winter; [12]
  Plant response rating, Wheat: 0
lambsquarters; [10]
  Lambsquarters plant response rating: 98
lambsquarters; [11]
  Lambsquarters plant response rating: 100
lambsquarters; [12]
  Plant response rating, Lambsquarters: 100
Barnyardgrass [6]; [10]
  Barnyardgrass plant response rating: 10
Barnyardgrass [6]; [11]
  Barnyardgrass plant response rating: 100
Barnyardgrass [6]; [12]
  Plant response rating, Barnyardgrass: 98
Italian ryegrass; [13]
  Plant response rating (0 to 100), Ryegrass, Italian: 0
Italian ryegrass; [14]
  Ryegrass, Italian plant response rating: 0
Italian ryegrass; [15]
  Plant response rating, Ryegrass, Italian: 0
Italian ryegrass; [16]
  Plant response rating, Ryegrass, Italian: 0
Morningglory [7]; [13]
  Plant response rating (0 to 100), Morningglory: 10
Morningglory [7]; [14]
  Morningglory plant response rating: 45
Morningglory [7]; [15]
  Plant response rating, Morningglory: 75
Morningglory [7]; [16]
  Plant response rating, Morningglory: 70
Pigweed [8]; [13]
  Plant response rating (0 to 100), Pigweed: 60
Pigweed [8]; [14]
  Pigweed plant response rating: 90
Pigweed [8]; [15]
  Plant response rating, Pigweed: 95
Pigweed [8]; [16]
  Plant response rating, Pigweed: 90
kochia; [13]
  Plant response rating (0 to 100), Kochia: 30
kochia; [14]
  Kochia plant response rating: 80
kochia; [15]
  Plant response rating, Kochia: 90
kochia; [16]
  Plant response rating, Kochia: 85

From US9695155B2, “Herbicidal substituted pyrimidinyloxy benzene compounds” (E. I. DU PONT DE NEMOURS AND COMPANY, priority 2013, dated 2017)
